Measured values: ChEMBL document CHEMBL1201862, “PubChem BioAssay data set” (2004)
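Exposure lasted 48 hours, with cells grown in 96-well plates and compounds tested at five concentrations. At the GI50, growth is halved.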 Active and inactive are the calls of the source. Cut-off read from the data, not from the text of the source: active = GI50 up to about 1.1 µM and inactive = higher.

Assays:
Experiment in all cases: NCI anticancer screen, dose series, 48 h
786-0 = tested on: 786-0
A498 = tested on: A498
A549 = tested on: A549
ACHN = tested on: ACHN
BT-549 = tested on: BT-549
CAKI-1 = tested on: CAKI-1
CCRF-CEM = tested on: CCRF-CEM
COLO 205 = tested on: COLO 205
DU-145 = tested on: DU-145
EKVX = tested on: EKVX
HCC 2998 = tested on: HCC 2998
HCT-116 = tested on: HCT-116
HCT-15 = tested on: HCT-15
HOP-62 = tested on: HOP-62
HOP-92 = tested on: HOP-92
HT-29 = tested on: HT-29
Hs-578T = tested on: Hs-578T
IGROV-1 = tested on: IGROV-1
K562 = tested on: K562
KM12 = tested on: KM12
LOX IMVI = tested on: LOX IMVI
M14 = tested on: M14
MCF7 = tested on: MCF7
MDA-MB-231 = tested on: MDA-MB-231
MDA-MB-435 = tested on: MDA-MB-435
MDA-N = tested on: MDA-N
MOLT-4 = tested on: MOLT-4
Malme-3M = tested on: Malme-3M
NCI-H226 = tested on: NCI-H226
NCI-H23 = tested on: NCI-H23
NCI-H460 = tested on: NCI-H460
NCI-H522 = tested on: NCI-H522
NCI/ADR-RES = tested on: NCI/ADR-RES
OVCAR-3 = tested on: OVCAR-3
OVCAR-4 = tested on: OVCAR-4
OVCAR-5 = tested on: OVCAR-5
OVCAR-8 = tested on: OVCAR-8
PC-3 = tested on: PC-3
RPMI-8226 = tested on: RPMI-8226
RXF 393 = tested on: RXF 393
SF-268 = tested on: SF-268
SF-295 = tested on: SF-295
SF-539 = tested on: SF-539
SK-MEL-28 = tested on: SK-MEL-28
SK-MEL-5 = tested on: SK-MEL-5
SK-OV-3 = tested on: SK-OV-3
SN12C = tested on: SN12C
SNB-19 = tested on: SNB-19
SNB-75 = tested on: SNB-75
SR = tested on: SR
SW-620 = tested on: SW-620
TK-10 = tested on: TK-10
U-251 = tested on: U-251
UACC-257 = tested on: UACC-257
UACC-62 = tested on: UACC-62
UO-31 = tested on: UO-31
SK-MEL-2 = tested on: SK-MEL-2
T47D = tested on: T47D
HL-60 = tested on: HL-60

For N#Cc1c(O)c(C=O)c(=O)n2c1[nH]c1ccccc12, the GI50 (786-0) was > 100 µM (inactive), the GI50 (A498) was > 100 µM (inactive) and the GI50 (A549) was > 100 µM (inactive). The GI50 (ACHN) was > 100 µM (inactive), the GI50 (BT-549) was > 100 µM (inactive) and the GI50 (CAKI-1) was > 100 µM (inactive). The GI50 (CCRF-CEM) was > 100 µM (inactive), the GI50 (COLO 205) was > 100 µM (inactive) and the GI50 (DU-145) was > 100 µM (inactive). For the same compound, the GI50 (EKVX) was > 100 µM (inactive), the GI50 (HCC 2998) was > 100 µM (inactive) and the GI50 (HCT-116) was > 100 µM (inactive). For the same compound, the GI50 (HCT-15) was > 100 µM, the GI50 (HOP-62) was > 100 µM (inactive) and the GI50 (HOP-92) was > 100 µM (inactive). The GI50 (HT-29) was > 100 µM (inactive), the GI50 (Hs-578T) was > 100 µM (inactive) and the GI50 (IGROV-1) was > 100 µM (inactive). For the same compound, the GI50 (K562) was > 100 µM (inactive), the GI50 (KM12) was > 100 µM (inactive) and the GI50 (LOX IMVI) was > 100 µM (inactive). The GI50 (M14) was > 100 µM (inactive), the GI50 (MCF7) was 44.3 µM (inactive) and the GI50 (MDA-MB-231) was > 100 µM (inactive). The GI50 (MDA-MB-435) was > 100 µM (inactive), the GI50 (MDA-N) was > 100 µM (inactive) and the GI50 (MOLT-4) was > 100 µM (inactive). The GI50 (Malme-3M) was > 100 µM (inactive), the GI50 (NCI-H226) was > 100 µM (inactive) and the GI50 (NCI-H23) was > 100 µM (inactive). The GI50 (NCI-H460) was > 100 µM (inactive), the GI50 (NCI-H522) was > 100 µM (inactive) and the GI50 (NCI/ADR-RES) was > 100 µM (inactive). The GI50 (OVCAR-3) was > 100 µM (inactive), the GI50 (OVCAR-4) was > 100 µM (inactive) and the GI50 (OVCAR-5) was > 100 µM (inactive). For the same compound, the GI50 (OVCAR-8) was > 100 µM (inactive), the GI50 (PC-3) was > 100 µM (inactive) and the GI50 (RPMI-8226) was > 100 µM (inactive). For the same compound, the GI50 (RXF 393) was > 100 µM (inactive), the GI50 (SF-268) was > 100 µM (inactive) and the GI50 (SF-295) was > 100 µM (inactive). For the same compound, the GI50 (SF-539) was > 100 µM (inactive), the GI50 (SK-MEL-28) was > 100 µM (inactive) and the GI50 (SK-MEL-5) was > 100 µM (inactive). For the same compound, the GI50 (SK-OV-3) was > 100 µM (inactive), the GI50 (SN12C) was > 100 µM (inactive) and the GI50 (SNB-19) was > 100 µM (inactive). For the same compound, the GI50 (SNB-75) was > 100 µM (inactive), the GI50 (SR) was 61.4 µM (inactive) and the GI50 (SW-620) was > 100 µM (inactive). For the same compound, the GI50 (TK-10) was > 100 µM (inactive), the GI50 (U-251) was > 100 µM (inactive) and the GI50 (UACC-257) was > 100 µM (inactive). The GI50 (UACC-62) was > 100 µM (inactive) and the GI50 (UO-31) was > 100 µM (inactive).

For COC(=O)/C=C(\C)C(=O)N(C)c1ccccc1I, the GI50 (786-0) was > 100 µM (inactive), the GI50 (A498) was > 100 µM (inactive) and the GI50 (A549) was > 100 µM (inactive). The GI50 (ACHN) was > 100 µM (inactive), the GI50 (CAKI-1) was 72.1 µM (inactive) and the GI50 (CCRF-CEM) was > 100 µM (inactive). The GI50 (COLO 205) was > 100 µM (inactive), the GI50 (DU-145) was > 100 µM (inactive) and the GI50 (EKVX) was > 100 µM (inactive). The GI50 (HCC 2998) was > 100 µM (inactive), the GI50 (HCT-116) was > 100 µM (inactive) and the GI50 (HCT-15) was > 100 µM. For the same compound, the GI50 (HOP-62) was > 100 µM (inactive), the GI50 (HOP-92) was > 100 µM (inactive) and the GI50 (K562) was > 100 µM (inactive). The GI50 (KM12) was > 100 µM (inactive), the GI50 (LOX IMVI) was > 100 µM (inactive) and the GI50 (M14) was > 100 µM (inactive). For the same compound, the GI50 (MCF7) was > 100 µM (inactive), the GI50 (MDA-MB-231) was > 100 µM (inactive) and the GI50 (MDA-MB-435) was > 100 µM (inactive). The GI50 (MDA-N) was > 100 µM (inactive), the GI50 (MOLT-4) was > 100 µM (inactive) and the GI50 (Malme-3M) was > 100 µM (inactive). For the same compound, the GI50 (NCI-H226) was > 100 µM (inactive), the GI50 (NCI-H23) was > 100 µM (inactive) and the GI50 (NCI-H460) was > 100 µM (inactive). For the same compound, the GI50 (NCI/ADR-RES) was > 100 µM (inactive), the GI50 (OVCAR-3) was > 100 µM (inactive) and the GI50 (OVCAR-4) was > 100 µM (inactive). For the same compound, the GI50 (OVCAR-5) was > 100 µM (inactive), the GI50 (OVCAR-8) was > 100 µM (inactive) and the GI50 (PC-3) was > 100 µM (inactive). The GI50 (RPMI-8226) was > 100 µM (inactive), the GI50 (RXF 393) was > 100 µM (inactive) and the GI50 (SF-268) was > 100 µM (inactive). For the same compound, the GI50 (SF-295) was > 100 µM (inactive), the GI50 (SK-MEL-28) was > 100 µM (inactive) and the GI50 (SK-MEL-2) was > 100 µM (inactive). The GI50 (SK-MEL-5) was > 100 µM (inactive), the GI50 (SK-OV-3) was > 100 µM (inactive) and the GI50 (SN12C) was > 100 µM (inactive). The GI50 (SNB-19) was > 100 µM (inactive), the GI50 (SNB-75) was 76.9 µM (inactive) and the GI50 (SR) was 94 µM (inactive). The GI50 (SW-620) was > 100 µM (inactive), the GI50 (T47D) was > 100 µM (inactive) and the GI50 (U-251) was > 100 µM (inactive). For the same compound, the GI50 (UACC-257) was > 100 µM (inactive), the GI50 (UACC-62) was > 100 µM (inactive) and the GI50 (UO-31) was > 100 µM (inactive).

For CC(=O)OC1(C)C=CC(=O)C=C1, the GI50 (786-0) was 23.4 µM (inactive), the GI50 (A498) was 31.6 µM (inactive) and the GI50 (A549) was > 100 µM (inactive). The GI50 (ACHN) was 17.5 µM (inactive), the GI50 (BT-549) was 57.3 µM (inactive) and the GI50 (CAKI-1) was 46 µM (inactive). The GI50 (CCRF-CEM) was 44.1 µM (inactive), the GI50 (COLO 205) was > 100 µM (inactive) and the GI50 (DU-145) was 36.6 µM (inactive). The GI50 (EKVX) was 62.5 µM (inactive), the GI50 (HCC 2998) was > 100 µM (inactive) and the GI50 (HCT-116) was 80.2 µM (inactive). For the same compound, the GI50 (HCT-15) was 18 µM, the GI50 (HL-60) was 27.9 µM (inactive) and the GI50 (HOP-62) was 27.1 µM (inactive). The GI50 (HOP-92) was 39 µM (inactive), the GI50 (HT-29) was 63.5 µM (inactive) and the GI50 (Hs-578T) was 61.7 µM (inactive). For the same compound, the GI50 (IGROV-1) was 12.9 µM (inactive), the GI50 (K562) was 50.8 µM (inactive) and the GI50 (KM12) was > 100 µM (inactive). For the same compound, the GI50 (LOX IMVI) was 32.6 µM (inactive), the GI50 (M14) was 32.6 µM (inactive) and the GI50 (MCF7) was 20.4 µM (inactive). For the same compound, the GI50 (MDA-MB-231) was 24.2 µM (inactive), the GI50 (MDA-MB-435) was 29.9 µM (inactive) and the GI50 (MDA-N) was 31.2 µM (inactive). The GI50 (MOLT-4) was 30.3 µM (inactive), the GI50 (NCI-H226) was 26.2 µM (inactive) and the GI50 (NCI-H23) was 27.5 µM (inactive). The GI50 (NCI-H460) was 25.9 µM (inactive), the GI50 (NCI-H522) was 10.8 µM (inactive) and the GI50 (NCI/ADR-RES) was 6.3 µM (inactive). The GI50 (OVCAR-3) was 51.8 µM (inactive), the GI50 (OVCAR-4) was 53.5 µM (inactive) and the GI50 (OVCAR-5) was 40.8 µM (inactive). For the same compound, the GI50 (OVCAR-8) was 24.7 µM (inactive), the GI50 (PC-3) was 27.4 µM (inactive) and the GI50 (RPMI-8226) was 37.3 µM (inactive). The GI50 (SF-268) was 31 µM (inactive), the GI50 (SF-295) was 37.2 µM (inactive) and the GI50 (SF-539) was 18.3 µM (inactive). For the same compound, the GI50 (SK-MEL-28) was 23.6 µM (inactive), the GI50 (SK-MEL-2) was 28.2 µM (inactive) and the GI50 (SK-MEL-5) was 40.2 µM (inactive). For the same compound, the GI50 (SK-OV-3) was > 100 µM (inactive), the GI50 (SN12C) was 62.7 µM (inactive) and the GI50 (SNB-19) was 48.2 µM (inactive). The GI50 (SNB-75) was 84.1 µM (inactive), the GI50 (SR) was 32.7 µM (inactive) and the GI50 (SW-620) was 60.4 µM (inactive). For the same compound, the GI50 (TK-10) was 22.5 µM (inactive), the GI50 (U-251) was 13.3 µM (inactive) and the GI50 (UACC-257) was 17.1 µM (inactive). For the same compound, the GI50 (UACC-62) was 17.1 µM (inactive) and the GI50 (UO-31) was 23.9 µM (inactive).
